Test results taken from patent publication US8673289B2, “Attenuated uracil auxotroph of an apicomplexan and use thereof” (priority 2007, dated 2014).

What was measured:
cps1 and cps2 mutants = assay: pyrimidine dependence of cps1 and cps2 replication and plaque formation; format: cell-based, Toxoplasma gondii; details: for rescue of growth rate / replication of cps1 and cps2: relatively low (thymine, thymidine: moderate) concentrations in medium
From the text: However, all of these mutants are somewhat “leaky” in that there was not an absolute growth (replication) dependence on uracil addition to the growth medium for replication. Each of these mutants grows at a moderate (½ of normal) growth rate for the first 2 days following infection of a host cell producing vacuoles that contained 16 to 32 parasites by 3 days post infection. In contrast, RH parasites are lysed out of their primary vacuoles at this time (3 days, >64 parasites). However, the cps mutants slow after 3 days and many parasites never (about ⅓) break out of their primary vacuole. If the primary vacuole breaks, a few parasites can be detected at the site of infection but the infection site always involves a small zone of infection that never forms a visible plaque in a standard 7 day plaque assay. To quantitate growth of these mutants, HFF flasks were inoculated with […] or cps2 parasites (about a multiplicity of infection (MOI) of 1 parasite per 20 HFF cells). After 2 hours of attachment and invasion (all of these mutants have normal attachment and invasion phenotypes as scored by counting percent entered parasites into host cells as a function of time post-inoculation), different concentrations of different pyrimidine compound was added to parallel infected HFF flasks. As a function of time post pyrimidine addition (t=0 hour) the number of parasites per vacuole was scored for 50 vacuoles as described by Fox et al. ((1999) supra). The number of parasite doublings was calculated based on 1 parasite entering each primary vacuole. Thus, 1 doubling=2 parasites per vacuole, 3 doublings=8 parasites per vacuole, and 5 doublings=32 parasites per vacuole. The pyrimidine dependence of cps1 and cps2 replication (doublings of parasites in the vacuole) was plotted graphically. […] The response to thymine and thymidine was additionally informative about the cause of the growth defect in cps1 and cps2. […] This is believed to be caused by the putative defect in the cps1 and cps2 mutants which is a reduced “pool” size of UMP. If UMP pools (ultimately used for RNA and DNA synthesis) are lowered it follows that a resulting decrease in TMP pools is expected since UMP is the precursor of TMP in T. gondii and all other apicomplexan parasites which normally lack TK activity. However, since cps1 and cps2 now express a TK activity carried into the parasite by the p53KOX3-1R plasmid, exemplified by sensitivity of these mutants to ganciclovir (specific to HSV TK), feeding parasites either thymine or thymidine is expected to increase TMP pools. Thus, it appears that moderate levels of thymine or thymidine partially rescue growth of cps1 and cps2 by restoring TMP pools. […] Since the parasite has no mechanism to convert TMP back to UMP there is still a defect in the UMP pool in cps1 and cps2 even with added thymine or thymidine and rescue is never complete. The ability of cps1 and cps2 mutants to form plaques on HFF monolayers in the standard 7 day assay paralleled the pyrimidine dependence of parasite replication in vacuoles.
The cps1 and cps2 mutants were inoculated intraperitoneally (i.p.) into balb/c mice to measure parasite virulence compared to virulent RH parasites. Both mutant cps1 and cps2 had equal virulence as RH parasites in balb/c mice (Jackson Labs), killing all mice within 10 days of i.p. inoculation (group size was four mice per parasite strain). Only 100 parasites (˜50 PFU) of each parasite strain was needed to kill all mice in each group. This pattern of virulence can be understood by re-examining the pyrimidine dependence of cps1 and cps2 growth. Uridine is believed to be the pyrimidine responsible for virulence of cps1 and cps2 in mice. Only 5 μM uridine completely rescues normal plaque size of cps1 and cps2 in vitro. Plasma concentrations of uridine in mice are approximately 5 to 10 μM.

cps1-1 and cps2-1 = assay: pyrimidine rescue of cps1-1 and cps2-1 replication and plaque formation; format: cell-based, Toxoplasma gondii; details: for rescue of replication (doublings) of cps1-1 and cps2-1: 36-hour replication assay, HFF; for rescue of plaque formation of cps1-1 and cps2-1: plaque assay
Experimental: No pyrimidine compound at less than 25 μM could rescue plaque formation of cps1-1 or cps2-1. […] Uridine was quite poor at rescue of plaque formation in cps1-1 and cps2-1.
A more detailed growth response to pyrimidine, measured as parasite replications (doublings) was performed for cps1-1 and cps2-1 and compared to the results previously obtained for […]. […] Uridine rescue was poor, with a slow restoration of growth at very high amounts, >400 μM. Deoxyuridine rescue was significant, but again, full growth rate was not restored at any concentration of deoxyuridine. Rescue with uracil was robust, but only in a limited range of concentration. Full restoration of growth rate in cps1-1 and cps2-1 was possible only with uracil added between 200 and 400 μM. […] This phenotype can only be observed in T. gondii pyrimidine auxotroph mutants, not in wild-type parasites with intact de novo pyrimidine synthesis pathways.
The pyrimidine growth dependence of mutant cps1-1 on the pyrimidine salvage pathway was further documented in thymidine interference experiments. Mutant cps1-1 plaques well in 250 μM uracil or deoxyuridine, but not in 1000 μM thymidine. Since thymidine at 1000 μM is known to inhibit approximately 90% of the parasite nucleoside phosphorylase activity specific for cleavage of deoxyuridine (Iltzsch, (1993) J. Euk. Micro. 40:24-28), growth of cps1-1 was tested in combinations of 1000 μM thymidine and 250 μM uracil or 250 μM deoxyuridine. All pyrimidine salvage in T. gondii must pass through uracil and UPRT conversion of uracil to UMP. In contrast, thymidine has no effect on UPRT activity. Thus, if growth of cps1-1 were dependent on deoxyuridine supplementation then replication in this condition may be inhibited by co-supplementing with 1000 μM thymidine. […] Thus, when cps1-1 is grown in deoxyuridine the parasite strictly requires nucleoside phosphorylase activity to cleave deoxyuridine for growth. […] Thus, cps1-1 and cps2-1 rely strictly on pyrimidine salvage enzymes for growth and further, the HFF host cell in vitro cannot supply sufficient pyrimidines for growth of cps1-1 or cps2-1. […] Such potential inhibitors can only be identified using a pyrimidine auxotroph such as provided in the instant invention.
To assess reversion, 10^6 to 10^7 cps1-1 or cps2-1 parasites were periodically inoculated into HFF flasks supplemented with 5 μM uridine. This concentration of uridine is sufficient to rescue the parent strains (cps1 and cps2) of cps1-1 and cps2-1.

wild-type T. gondii = assay: labeling of parasites with [3H]pyrimidines (pyrimidine salvage); format: cell-based, Toxoplasma gondii; details: parasites grown in host cells
Experimental: (§1) Initial experiments primarily involved an enzymatic analysis of drug resistant mutants and the incorporation of various pyrimidine analogs into T. gondii RNA and DNA as an indication of pyrimidine salvage when parasites were grown in either normal host or mutant host cells. All biochemical communications between the parasite and host cells cross the vacuolar membrane which is now known to contain “pores” that permit the passage of nucleobases ranging in molecular mass from 112 daltons up to 244 daltons. The size of the pores is estimated to be approximately 1500 daltons. A T. gondii mutant resistant to 5-fluorodeoxyuridine (FUDR-1) had lost uracil phosphoribosyltransferase (UPRT), an enzyme which is absent in normal host cells (Pfefferkorn (1978) Expt. Parasitol. 44:26-35). […] FUDR-1 mutant parasites were not labeled with [^3H]deoxyuridine. […] FUDR-1 mutant parasites were not labeled with [^3H]uridine. […] FUDR-1 (UPRT knock-out) parasites were not labeled with [^3H]uracil.
Similarly, since uracil only labels the parasite, due to the parasite UPRT, which is absent in the host, the pyrimidine pools of the parasite are also unavailable to the host. Thus, there is no detectable pyrimidine traffic detected between the parasite and host.

FUDR-1 mutant parasites = assay: labeling of FUDR-1 (UPRT knock-out) parasites with [3H]pyrimidines; format: cell-based, Toxoplasma gondii
Experimental: as §1

mammalian CPSII = details: hamster CPSII; cited from earlier work
E. coli CPS = details: cited from earlier work

With `Nc1ccn([C@@H]2O[C@H](CO)[C@@H](O)[C@H]2O)c(=O)n1` [cytidine] the “rescue of growth rate / replication of cps1 and cps2” value (cps1 and cps2 mutants) was “completely rescued”, the “rescue of replication (doublings) of cps1-1 and cps2-1” value (cps1-1 and cps2-1) was “remained as a single non-replicated parasite” and the “incorporation of [3H]-labeled pyrimidine into wild-type parasites” value (“incorporation” for short) (wild-type T. gondii) was “did not incorporate”.

With `Nc1cc[nH]c(=O)n1` [cytosine] the “rescue of growth rate / replication of cps1 and cps2” value (cps1 and cps2 mutants) was “did not rescue at all”, the “rescue of replication (doublings) of cps1-1 and cps2-1” value (cps1-1 and cps2-1) was “remained as a single non-replicated parasite” and the “incorporation” value (wild-type T. gondii) was “did not incorporate”.

With `O=c1ccn([C@H]2C[C@H](O)[C@@H](CO)O2)c(=O)[nH]1` [deoxyuridine] the “rescue of growth rate / replication of cps1 and cps2” value (cps1 and cps2 mutants) was “completely rescued”, the “labeling of FUDR-1 mutant parasites with [3H]pyrimidine” value (FUDR-1 mutant parasites) was “not labeled” and the “plaque formation of cps1-1” value (cps1-1 and cps2-1; 250 μM supplement) was “plaques well”. The “rescue of replication (doublings) of cps1-1 and cps2-1” value (cps1-1 and cps2-1) was “significant”, the “rescue of plaque formation of cps1-1 and cps2-1” value (cps1-1 and cps2-1) was “significant growth rescue” and the “incorporation” value (wild-type T. gondii) was “incorporated into wild-type T. gondii”.

With `O=C(O)c1cc(=O)[nH]c(=O)[nH]1` [orotic acid] the “incorporation” value (wild-type T. gondii) was “did not incorporate”.

For `Cc1c[nH]c(=O)[nH]c1=O` [thymine], the “rescue of growth rate / replication of cps1 and cps2” value (cps1 and cps2 mutants) was “partially rescued”, the “rescue of replication of cps1 and cps2” value (cps1 and cps2 mutants; very high concentrations) was “did not rescue replication” and the “rescue of replication (doublings) of cps1-1 and cps2-1” value (cps1-1 and cps2-1) was “remained as a single non-replicated parasite”. For the same molecule, the “rescue of plaque formation of cps1-1 and cps2-1” value (cps1-1 and cps2-1) was “no response was detected” and the “incorporation” value (wild-type T. gondii) was “did not incorporate”.

With `O=c1ccn([C@@H]2O[C@H](CO)[C@@H](O)[C@H]2O)c(=O)[nH]1` [uridine] the “uridine concentration that rescues cps1 and cps2 (normal plaque size)” value (cps1 and cps2 mutants; in vitro) was 5 µM, the “rescue of growth rate / replication of cps1 and cps2” value (cps1 and cps2 mutants) was “completely rescued” and the “labeling of FUDR-1 mutant parasites with [3H]pyrimidine” value (FUDR-1 mutant parasites) was “not labeled”. For the same molecule, the “support of growth of cps1-1 or cps2-1” value (cps1-1 and cps2-1; 5 μM uridine) was “insufficient to support any growth”, the “rescue of replication (doublings) of cps1-1 and cps2-1” value (cps1-1 and cps2-1) was “poor” and the “uridine concentration giving slow restoration of growth” value (cps1-1 and cps2-1; cps1-1, cps2-1) was greater than 400 µM. The “rescue of plaque formation of cps1-1 and cps2-1” value (cps1-1 and cps2-1) was “quite poor” and the “incorporation” value (wild-type T. gondii) was “incorporated into wild-type parasites”.

In the case of “H. a. S1345A: hamster CPSII with regulatory domain serine to alanine mutation”, the “Effect on CPS or CPSII” value (mammalian CPSII) is given as “Reduces PRPP activation”.

In the case of “H. a. T456A: mammalian (hamster) CPSII with MAPK site mutation T456A”, the “Effect on CPS or CPSII” value (mammalian CPSII) is given as “Abolishes MAPK activation”.

B1: E. c. C269A: E. coli CPS with catalytic triad mutation C269A (protein, UniProt P0A6F1 1-382; P00968 2-1073, looked up, variant C269A)
Carbamoyl phosphate synthase … 1: MIKSALLVLEDGTQFHGRAIGATGSAVGEVVFNTSMTGYQEILTDPSYSRQIVTLTYPHIGNVGTNDADEESSQVHAQGLVIRDLPLIASNFRNTEDLSSYLKRHNIVAIADIDTRKLTRLLREKGAQNGCIIAGDNPDAALALEKARAFPGLNGMDLAKEVTTAEAYSWTQGSWTLTGGLPEAKKEDELPFHVVAYDFGAKRNILRMLVDRGCRLTIVPAQTSAEDVLKMNPDGIFLSNGPGDPAPCDYAITAIQKFLETDIPVFGIALGHQLLALASGAKTVKMKFGHHGGNHPVKDVEKNVVMITAQNHGFAVDEATLPANLRVTHKSLFDGTLQGIHRTDKPAFSFQGHPEASPGPHDAAPLFDHFIELIEQYRKTAK
Carbamoyl phosphate synthase … 2: PKRTDIKSILILGAGPIVIGQACEFDYSGAQACKALREEGYRVILVNSNPATIMTDPEMADATYIEPIHWEVVRKIIEKERPDAVLPTMGGQTALNCALELERQGVLEEFGVTMIGATADAIDKAEDRRRFDVAMKKIGLETARSGIAHTMEEALAVAADVGFPCIIRPSFTMGGSGGGIAYNREEFEEICARGLDLSPTKELLIDESLIGWKEYEMEVVRDKNDNCIIVCSIENFDAMGIHTGDSITVAPAQTLTDKEYQIMRNASMAVLREIGVETGGSNVQFAVNPKNGRLIVIEMNPRVSRSSALASKATGFPIAKVAAKLAVGYTLDELMNDITGGRTPASFEPSIDYVVTKIPRFNFEKFAGANDRLTTQMKSVGEVMAIGRTQQESLQKALRGLEVGATGFDPKVSLDDPEALTKIRRELKDAGADRIWYIADAFRAGLSVDGVFNLTNIDRWFLVQIEELVRLEEKVAEVGITGLNADFLRQLKRKGFADARLAKLAGVREAEIRKLRDQYDLHPVYKRVDTCAAEFATDTAYMYSTYEEECEANPSTDREKIMVLGGGPNRIGQGIEFDYCCVHASLALREDGYETIMVNCNPETVSTDYDTSDRLYFEPVTLEDVLEIVRIEKPKGVIVQYGGQTPLKLARALEAAGVPVIGTSPDAIDRAEDRERFQHAVERLKLKQPANATVTAIEMAVEKAKEIGYPLVVRPSYVLGGRAMEIVYDEADLRRYFQTAVSVSNDAPVLLDHFLDDAVEVDVDAICDGEMVLIGGIMEHIEQAGVHSGDSACSLPAYTLSQEIQDVMRQQVQKLAFELQVRGLMNVQFAVKNNEVYLIEVNPRAARTVPFVSKATGVPLAKVAARVMAGKSLAEQGVTKEVIPPYYSVKEVVLPFNKFPGVDPLLGPEMRSTGEVMGVGRTFAEAFAKAQLGSNSTMKKHGRALLSVREGDKERVVDLAAKLLKQGFELDATHGTAIVLGEAGINPRLVNKVHEGRPHIQDRIKNGEYTYIINTTSGRRAIEDSRVIRRSALQYKVHYDTTLNGGFATAMALNADATEKVISVQEMHAQIK
modifications: mutation in small subunit
For B1, the “Effect on CPS or CPSII” value (E. coli CPS) is listed as “Abolishes GATase activity”.
